This note sets out measurements from patent publication US10029984B2, “Mono- or di-substituted indole derivatives as dengue viral replication inhibitors” (Janssen Pharmaceuticals, Inc., priority 2015, dated 2018).

For orientation: EC50 means the concentration needed to bring the measured effect to its halfway point. The term CC50 denotes the concentration giving 50% cytotoxicity. Higher therefore signals lower toxicity to the cells.

The subject of one data set is DENV-2 16681 strain. The experiment in a line: DENV-2 antiviral assay (eGFP-labeled virus in Vero cells). As to conditions: DENV-2 16681 eGFP, MOI 0.5, 3 days. It is filed as cell-based, Dengue virus. As for the experimental part: The antiviral activity of all the compounds of the invention was tested against DENV-2 16681 strain which was labeled with enhanced green fluorescent protein (eGPF; Table 1). The culture medium consists of minimal essential medium supplemented with 2% of heat-inactivated fetal calf serum, 0.04% gentamycin (50 mg/mL) and 2 mM of L-glutamine. Vero cells, obtained from ECACC, were suspended in culture medium and 25 μL was added to 384-well plates (2500 cells/well), which already contain the antiviral compounds. Typically, these plates contain a 4-fold serial dilution of 9 dilution steps of the test compound at 200 times the final concentration in 100% DMSO (200 nL). In addition, each compound concentration is tested in quadruplicate (final concentration range: 25 μM-0.00038 μM). Finally, each plate contains wells which are assigned as virus controls (containing cells and virus in the absence of compound), cell controls (containing cells in the absence of virus and compound) and medium controls (containing medium in the absence of cells, virus and compounds). To the wells assigned as medium control, 25 μL of culture medium was added instead of Vero cells. Once the cells were added to the plates, the plates were incubated for 30 minutes at room temperature to allow the cells to distribute evenly within the wells. Next, the plates were incubated in a fully humidified incubator (37° C., 5% CO2) until the next day. Then, DENV-2 strain 16681, labeled with eGFP, was added at a multiplicity of infection (MOI) of 0.5. Therefore, 15 μL of virus suspension was added to all the wells containing test compound and to the wells assigned as virus control. In parallel, 15 μL of culture medium was added to the medium and cell controls. Next, the plates were incubated for 3 days in a fully humidified incubator (37° C., 5% CO2). At the day of the read out, the eGFP fluorescence was measured using an automated fluorescence microscope at 488 nm (blue laser). Using an in-house LIMS system, inhibition dose response curves for each compound were calculated and the half maximal effective concentration (EC50) was determined. Therefore, the percent inhibition (I) for every test concentration is calculated using the following formula: I=100*(ST−SCC)/(SVC−SCC); ST, SCC and SVC are the amount of eGFP signal in the test compound, cell control and virus control wells, respectively. The EC50 represents the concentration of a compound at which the virus replication is inhibited with 50%, as measured by a 50% reduction of the eGFP fluorescent intensity compared to the virus control. The EC50 is calculated using linear interpolation.

A short description of the next data set: in vitro. As to conditions: African green monkey, CC50. The format is cell-based. The protocol: In parallel, the toxicity of the compounds was assessed on the same plates. Once the read-out for the eGFP signal was done, 10 μL of resazurin, a cell viability stain, was added to all wells of the 384-well plates. The resazurin assay is based on the reduction of the blue resazurin by NADH, produced by the cells, into the highly fluorescent product, resorufin. The formation of pink fluorescent resorufin is directly related to the number of viable cells in the well. The plates were incubated for an additional 5 hours in a fully humidified incubator (37° C., 5% CO2). Next, the plates were measured on an Infinite reader (Tecan) using an excitation wavelength of 530 nm. The half maximal cytotoxic concentration (CC50) was also determined, defined as the concentration required to reduce the resazurin conversion by 50% compared to that of the cell control wells. Finally, the selectivity index (SI) was determined for the compounds, which was calculated as followed: SI=CC50/EC50.

Setting [1] is: Dengue virus, DENV2, Vero, 72 h.

Consider `COc1cc(NC(C(=O)c2c[nH]c3cc(F)ccc23)c2ccc(F)cc2OC)cc(S(C)(=O)=O)c1` (racemic) [Compound 1, 1-(6-fluoro-1H-indol-3-yl)-2-(4-fluoro-2-methoxyphenyl)-2-((3-methoxy-5-(methylsulfonyl)phenyl)amino)ethanone], for which the concentration for a half-maximal effect (EC50) in the data set with DENV-2 16681 strain (setting [1]) stood at 2 nM. It took 9900 nM to reach half-maximal cytotoxicity in “in vitro” (CC50).

For `COc1cc(NC(C(=O)c2c[nH]c3c(C)c(F)ccc23)c2ccc(F)cc2OC)cc(S(C)(=O)=O)c1` (racemic) [Compound 2, 2-(4-fluoro-2-methoxyphenyl)-1-(6-fluoro-7-methyl-1H-indol-3-yl)-2-((3-methoxy-5-(methylsulfonyl)phenyl)amino)ethanone], a half-maximal response in the data set with DENV-2 16681 strain (setting [1]) (EC50) required 1.3 nM. The compound also registered a CC50 in “in vitro” of 8000 nM.

Compound `COc1cc(NC(C(=O)c2c[nH]c3c(C)c(Cl)ccc23)c2ccc(F)cc2OC)cc(S(C)(=O)=O)c1` (racemic) [Compound 3, 1-(6-chloro-7-methyl-1H-indol-3-yl)-2-(4-fluoro-2-methoxyphenyl)-2-((3-methoxy-5-(methylsulfonyl)phenyl)amino)ethanone] came in with an EC50 in the data set with DENV-2 16681 strain (setting [1]) of 0.58 nM. This compound also showed a 50% cytotoxic concentration (CC50) in the data set “in vitro” of 7200 nM.

In turn, `COc1cc(NC(C(=O)c2c[nH]c3cc(Cl)ccc23)c2ccc(F)cc2OC)cc(S(C)(=O)=O)c1` (racemic) [Compound 4, 1-(6-chloro-1H-indol-3-yl)-2-(4-fluoro-2-methoxyphenyl)-2-((3-methoxy-5-(methylsulfonyl)phenyl)amino)ethanone] came in with an EC50 with DENV-2 16681 strain (setting [1]) of 1.1 nM. The midpoint of cytotoxicity in the data set “in vitro”, the CC50, lay at 6600 nM.

`COc1cc(NC(C(=O)c2c[nH]c3cc(OC)ccc23)c2ccc(F)cc2OC)cc(S(C)(=O)=O)c1` (racemic) [Compound 5, 2-(4-fluoro-2-methoxyphenyl)-1-(6-methoxy-1H-indol-3-yl)-2-((3-methoxy-5-(methylsulfonyl)phenyl)amino)ethanone] came in with an EC50 with DENV-2 16681 strain (setting [1]) of 2 nM. For the same compound, the midpoint of cytotoxicity in the data set “in vitro”, the CC50, lay at 24000 nM.

For `COc1cc(NC(C(=O)c2c[nH]c3cc(F)c(F)cc23)c2ccc(F)cc2OC)cc(S(C)(=O)=O)c1` (racemic) [Compound 7, 1-(5,6-difluoro-1H-indol-3-yl)-2-(4-fluoro-2-methoxyphenyl)-2-((3-methoxy-5-(methylsulfonyl)phenyl)amino)ethanone], in the data set on DENV-2 16681 strain (setting [1]), the concentration for a half-maximal effect (EC50) stood at 1.5 nM. This compound also came in with a half-maximal cytotoxic concentration (CC50) in “in vitro” of 5000 nM.

In the case of `COc1cc(NC(C(=O)c2c[nH]c3c(C)cc(F)cc23)c2ccc(F)cc2OC)cc(S(C)(=O)=O)c1` (racemic) [Compound 8, 2-(4-fluoro-2-methoxyphenyl)-1-(5-fluoro-7-methyl-1H-indol-3-yl)-2-((3-methoxy-5-(methylsulfonyl)phenyl)amino)ethanone], in the data set on DENV-2 16681 strain (setting [1]), the EC50 is 2.8 nM. For the same compound, in “in vitro”, the CC50 was 7600 nM.

In the data set on DENV-2 16681 strain (setting [1]), `COc1cc(NC(C(=O)c2c[nH]c3cc(C)c(F)cc23)c2ccc(F)cc2OC)cc(S(C)(=O)=O)c1` (racemic) [Compound 9, 2-(4-fluoro-2-methoxyphenyl)-1-(5-fluoro-6-methyl-1H-indol-3-yl)-2-((3-methoxy-5-(methylsulfonyl)phenyl)amino)ethanone] displayed an EC50 of 1.6 nM. Besides, half-maximal cytotoxicity in the data set “in vitro” (CC50) was put at 8800 nM.

In the case of `COc1cc(NC(C(=O)c2c[nH]c3cc(OC)c(C)cc23)c2ccc(F)cc2OC)cc(S(C)(=O)=O)c1` (racemic) [Compound 10, 2-(4-fluoro-2-methoxyphenyl)-2-((3-methoxy-5-(methylsulfonyl)phenyl)amino)-1-(6-methoxy-5-methyl-1H-indol-3-yl)ethanone], a half-maximal response in the data set on DENV-2 16681 strain (setting [1]) (EC50) required 1.1 nM. The same compound came in with a half-maximal cytotoxic concentration (CC50) in the data set “in vitro” of 7800 nM.

Take `COc1cc(NC(C(=O)c2c[nH]c3cc(OC)c(F)cc23)c2ccc(F)cc2OC)cc(S(C)(=O)=O)c1` (racemic) [Compound 11, 2-(4-fluoro-2-methoxyphenyl)-1-(5-fluoro-6-methoxy-1H-indol-3-yl)-2-((3-methoxy-5-(methylsulfonyl)phenyl)amino)ethanone]: in the data set on DENV-2 16681 strain (setting [1]), the response was half-maximal at 3 nM (EC50). Besides, the midpoint of cytotoxicity in “in vitro”, the CC50, lay at 12000 nM.

In the data set on DENV-2 16681 strain (setting [1]), `COc1cc(NC(C(=O)c2c[nH]c3c(Cl)c(OC)ccc23)c2ccc(F)cc2OC)cc(S(C)(=O)=O)c1` (racemic) [Compound 12, 1-(7-chloro-6-methoxy-1H-indol-3-yl)-2-(4-fluoro-2-methoxyphenyl)-2-((3-methoxy-5-(methylsulfonyl)phenyl)amino)ethanone] gave a 50% effective concentration (EC50) of 0.6 nM. In “in vitro”, this compound had a CC50 of over 25000 nM.

Regarding `COc1cc(NC(C(=O)c2c[nH]c3c(F)c(F)ccc23)c2ccc(F)cc2OC)cc(S(C)(=O)=O)c1` (racemic) [Compound 13, 1-(6,7-difluoro-1H-indol-3-yl)-2-(4-fluoro-2-methoxyphenyl)-2-((3-methoxy-5-(methylsulfonyl)phenyl)amino)ethanone], the midpoint of the response in the data set with DENV-2 16681 strain (setting [1]), the EC50, lay at 1.4 nM. In “in vitro”, this compound yielded a CC50 of 7600 nM.

Regarding `COc1cc(NC(C(=O)c2c[nH]c3cc(F)c(C)cc23)c2ccc(F)cc2OC)cc(S(C)(=O)=O)c1` (racemic) [Compound 14, 2-(4-fluoro-2-methoxyphenyl)-1-(6-fluoro-5-methyl-1H-indol-3-yl)-2-((3-methoxy-5-(methylsulfonyl)phenyl)amino)ethanone], the response in the data set on DENV-2 16681 strain (setting [1]) was half-maximal at 1.5 nM (EC50). In addition, the midpoint of cytotoxicity in “in vitro”, the CC50, lay at 5300 nM.

In the data set on DENV-2 16681 strain (setting [1]), `COc1cc(NC(C(=O)c2c[nH]c3ccc(C)cc23)c2ccc(F)cc2OC)cc(S(C)(=O)=O)c1` (racemic) [Compound 15, 2-(4-fluoro-2-methoxyphenyl)-2-((3-methoxy-5-(methylsulfonyl)phenyl)amino)-1-(5-methyl-1H-indol-3-yl)ethanone] displayed an EC50 of 1.5 nM. In the data set “in vitro”, this compound returned a half-maximal cytotoxic concentration (CC50) of 7800 nM.

In the data set with DENV-2 16681 strain (setting [1]), `COc1cc(NC(C(=O)c2c[nH]c3cc(OC)c(Cl)cc23)c2ccc(F)cc2OC)cc(S(C)(=O)=O)c1` (racemic) [Compound 16, 1-(5-chloro-6-methoxy-1H-indol-3-yl)-2-(4-fluoro-2-methoxyphenyl)-2-((3-methoxy-5-(methylsulfonyl)phenyl)amino)ethanone] registered an EC50 of 0.66 nM. For the same compound, in “in vitro”, the CC50 is 8800 nM.

`COc1cc(NC(C(=O)c2c[nH]c3ccc(C(F)(F)F)cc23)c2ccc(F)cc2OC)cc(S(C)(=O)=O)c1` (racemic) [Compound 17, 2-(4-fluoro-2-methoxyphenyl)-2-((3-methoxy-5-(methylsulfonyl)phenyl)amino)-1-(5-(trifluoromethyl)-1H-indol-3-yl)ethanone] came in with an EC50 with DENV-2 16681 strain (setting [1]) of 0.24 nM. In the data set “in vitro”, it took 3500 nM to reach half-maximal cytotoxicity (CC50).

`COc1cc(NC(C(=O)c2c[nH]c3ccc(OC(F)(F)F)cc23)c2ccc(F)cc2OC)cc(S(C)(=O)=O)c1` (racemic) [Compound 18, 2-(4-fluoro-2-methoxyphenyl)-2-((3-methoxy-5-(methylsulfonyl)phenyl)amino)-1-(5-(trifluoromethoxy)-1H-indol-3-yl)ethanone] returned a concentration for a half-maximal effect (EC50) with DENV-2 16681 strain (setting [1]) of 0.25 nM. This compound showed a CC50 in the data set “in vitro” of 3300 nM.

Consider `COc1cc(NC(C(=O)c2c[nH]c3cc(OC)ccc23)c2ccc(F)cc2OC)cc(S(C)(=O)=O)c1` (single isomer, unassigned) [Enantiomer 5A, 2-(4-fluoro-2-methoxyphenyl)-1-(6-methoxy-1H-indol-3-yl)-2-((3-methoxy-5-(methylsulfonyl)phenyl)amino)ethanone], for which it took 70 nM to reach a half-maximal effect in the data set with DENV-2 16681 strain (listed as 5A) (EC50). It took 24000 nM to reach half-maximal cytotoxicity in “in vitro” (CC50).

On to `COc1cc(NC(C(=O)c2c[nH]c3c(F)c(F)ccc23)c2ccc(F)cc2OC)cc(S(C)(=O)=O)c1` (single isomer, unassigned) [Enantiomer 13A, 1-(6,7-difluoro-1H-indol-3-yl)-2-(4-fluoro-2-methoxyphenyl)-2-((3-methoxy-5-(methylsulfonyl)phenyl)amino)ethanone], for which the 50% effective concentration (EC50) in the data set on DENV-2 16681 strain (listed as 13A) is 17 nM. The CC50 in “in vitro” was 9500 nM.
